Key:
Parameters in all cases: Invitrogen kinase panel, per cent inhibition of kinase activity
[1] = target: NTRK1 (Homo sapiens, UniProt P04629); details: 10 µM, inhibitor
Protocol: (§1) To discover a potent and selective BDK inhibitor, a subset of the Pfizer compound collection was screened. […] Off target activity was assessed in both CEREP and kinase panels (Supplementary Tables 2, 3).

[2] = target: MAPK14 (Homo sapiens, UniProt Q16539); details: 10 µM, inhibitor
Protocol: as §1

[3] = target: PI4KA (Homo sapiens, UniProt P42356); details: inhibitor
Protocol: as §1

[4] = target: SRC (Homo sapiens, UniProt P12931); details: 10 µM, inhibitor
SRC, sequence (P12931 whole entry): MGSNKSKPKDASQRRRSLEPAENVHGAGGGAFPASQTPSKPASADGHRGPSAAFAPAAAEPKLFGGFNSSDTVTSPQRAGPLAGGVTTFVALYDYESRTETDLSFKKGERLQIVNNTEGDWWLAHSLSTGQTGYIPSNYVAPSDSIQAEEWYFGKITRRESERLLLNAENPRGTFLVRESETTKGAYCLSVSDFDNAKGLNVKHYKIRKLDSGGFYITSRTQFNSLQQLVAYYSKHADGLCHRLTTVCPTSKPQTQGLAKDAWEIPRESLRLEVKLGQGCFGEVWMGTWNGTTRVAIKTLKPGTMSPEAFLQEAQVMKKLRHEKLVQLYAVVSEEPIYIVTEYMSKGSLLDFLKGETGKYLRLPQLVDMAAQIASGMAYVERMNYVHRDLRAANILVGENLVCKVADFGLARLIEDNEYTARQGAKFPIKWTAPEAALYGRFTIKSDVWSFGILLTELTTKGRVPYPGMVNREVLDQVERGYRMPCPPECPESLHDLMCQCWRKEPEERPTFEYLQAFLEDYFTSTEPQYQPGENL
Protocol: as §1

[5] = target: PIK3C2B (Homo sapiens, UniProt O00750); details: inhibitor
Protocol: as §1

[6] = target: T1, HER4 (Homo sapiens, UniProt Q15303); details: 10 µM, inhibitor
T1 construct: gene ERBB4
Protocol: as §1

[7] = target: CDK2/Cyclin-A (Homo sapiens, UniProt P24941); details: 10 µM, inhibitor
Protocol: as §1

[8] = target: T2, mixed lineage kinase 1 (Homo sapiens, UniProt P80192); details: 10 µM, inhibitor
T2 construct: gene MAP3K9
Protocol: as §1

[9] = target: MYLK2 (Homo sapiens, UniProt Q9H1R3); details: 10 µM, inhibitor
MYLK2, sequence (Q9H1R3 whole entry): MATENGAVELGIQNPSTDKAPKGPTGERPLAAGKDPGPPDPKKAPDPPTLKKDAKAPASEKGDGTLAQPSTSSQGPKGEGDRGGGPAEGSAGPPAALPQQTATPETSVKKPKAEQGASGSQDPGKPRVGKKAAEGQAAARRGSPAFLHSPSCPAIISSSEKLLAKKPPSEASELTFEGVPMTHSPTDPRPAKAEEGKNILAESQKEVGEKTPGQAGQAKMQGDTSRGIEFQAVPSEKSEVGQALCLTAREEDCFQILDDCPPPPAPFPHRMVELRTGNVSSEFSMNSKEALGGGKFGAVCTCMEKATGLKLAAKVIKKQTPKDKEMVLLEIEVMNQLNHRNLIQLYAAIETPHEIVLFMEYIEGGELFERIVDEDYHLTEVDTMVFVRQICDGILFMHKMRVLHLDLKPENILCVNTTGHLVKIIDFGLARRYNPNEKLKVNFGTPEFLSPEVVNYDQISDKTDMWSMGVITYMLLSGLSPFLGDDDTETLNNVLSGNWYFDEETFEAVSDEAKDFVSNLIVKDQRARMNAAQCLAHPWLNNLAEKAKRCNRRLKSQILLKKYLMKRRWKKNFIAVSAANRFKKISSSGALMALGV
Protocol: as §1

[10] = target: mTOR (Homo sapiens, UniProt P42345); details: 10 µM, inhibitor
Protocol: as §1

[11] = target: MET (Homo sapiens, UniProt P08581); details: 10 µM, inhibitor
MET, sequence (P08581 whole entry): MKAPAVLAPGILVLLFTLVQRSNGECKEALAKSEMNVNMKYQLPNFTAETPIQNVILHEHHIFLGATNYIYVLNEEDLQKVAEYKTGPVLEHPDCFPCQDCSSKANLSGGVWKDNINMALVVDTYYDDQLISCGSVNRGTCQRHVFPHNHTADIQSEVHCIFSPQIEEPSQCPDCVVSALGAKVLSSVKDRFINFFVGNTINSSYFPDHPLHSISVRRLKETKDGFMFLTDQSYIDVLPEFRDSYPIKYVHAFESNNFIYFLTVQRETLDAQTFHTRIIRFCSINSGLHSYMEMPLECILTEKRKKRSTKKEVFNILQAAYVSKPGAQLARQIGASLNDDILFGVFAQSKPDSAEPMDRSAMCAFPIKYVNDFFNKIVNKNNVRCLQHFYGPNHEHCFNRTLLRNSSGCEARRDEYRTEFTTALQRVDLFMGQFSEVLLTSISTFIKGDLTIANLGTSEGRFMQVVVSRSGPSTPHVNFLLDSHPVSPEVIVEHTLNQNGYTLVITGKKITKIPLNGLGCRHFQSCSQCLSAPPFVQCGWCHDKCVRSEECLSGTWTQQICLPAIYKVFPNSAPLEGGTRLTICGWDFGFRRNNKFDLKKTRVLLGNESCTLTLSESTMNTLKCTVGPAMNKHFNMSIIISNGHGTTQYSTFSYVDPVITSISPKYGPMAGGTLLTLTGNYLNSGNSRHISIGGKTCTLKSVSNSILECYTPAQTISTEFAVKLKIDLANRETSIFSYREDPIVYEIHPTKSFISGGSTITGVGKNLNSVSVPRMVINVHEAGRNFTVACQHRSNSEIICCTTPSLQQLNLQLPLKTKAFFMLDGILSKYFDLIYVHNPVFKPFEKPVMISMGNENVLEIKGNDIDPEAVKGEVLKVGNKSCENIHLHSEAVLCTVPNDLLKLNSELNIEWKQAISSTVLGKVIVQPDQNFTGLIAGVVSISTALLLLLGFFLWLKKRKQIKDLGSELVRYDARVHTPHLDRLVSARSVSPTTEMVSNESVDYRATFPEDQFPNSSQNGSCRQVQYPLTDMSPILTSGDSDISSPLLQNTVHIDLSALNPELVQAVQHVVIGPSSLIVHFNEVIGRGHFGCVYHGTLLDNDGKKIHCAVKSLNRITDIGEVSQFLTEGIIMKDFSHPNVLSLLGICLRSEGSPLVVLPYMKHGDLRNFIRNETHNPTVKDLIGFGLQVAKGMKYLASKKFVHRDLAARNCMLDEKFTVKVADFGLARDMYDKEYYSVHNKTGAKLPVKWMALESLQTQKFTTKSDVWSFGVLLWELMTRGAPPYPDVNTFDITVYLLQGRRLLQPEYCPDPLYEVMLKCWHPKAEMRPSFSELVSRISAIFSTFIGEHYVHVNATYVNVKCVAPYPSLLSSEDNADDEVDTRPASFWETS
Protocol: as §1

[12] = target: PI4KB (Homo sapiens, UniProt Q9UBF8); details: 10 µM, inhibitor
Protocol: as §1

[13] = target: PIK3C3 (Homo sapiens, UniProt Q8NEB9); details: 10 µM, inhibitor
Protocol: as §1

[14] = target: PIK3CD (Homo sapiens, UniProt O00329); details: 10 µM, inhibitor
Protocol: as §1

[15] = target: AKT2 (Homo sapiens, UniProt P31751); details: 10 µM, inhibitor
Protocol: as §1

[16] = target: T3, PIM-1 (Homo sapiens, UniProt P11309); details: 10 µM, inhibitor
T3 construct: gene PIM1
T3 sequence (P11309 whole entry): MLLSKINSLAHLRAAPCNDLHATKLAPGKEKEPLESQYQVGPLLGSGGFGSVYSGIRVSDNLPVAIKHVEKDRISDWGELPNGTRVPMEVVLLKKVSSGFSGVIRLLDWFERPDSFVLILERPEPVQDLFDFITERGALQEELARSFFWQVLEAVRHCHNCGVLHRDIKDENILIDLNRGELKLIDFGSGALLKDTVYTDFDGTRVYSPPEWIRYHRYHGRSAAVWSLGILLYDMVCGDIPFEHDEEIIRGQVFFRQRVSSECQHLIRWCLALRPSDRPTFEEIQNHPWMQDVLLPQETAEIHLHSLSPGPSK
Protocol: as §1

[17] = target: PIK3CG (Homo sapiens, UniProt P48736); details: 10 µM, inhibitor
Protocol: as §1

[18] = target: MAPKAPK2 (Homo sapiens, UniProt P49137); details: 10 µM, inhibitor
MAPKAPK2, sequence (P49137 whole entry): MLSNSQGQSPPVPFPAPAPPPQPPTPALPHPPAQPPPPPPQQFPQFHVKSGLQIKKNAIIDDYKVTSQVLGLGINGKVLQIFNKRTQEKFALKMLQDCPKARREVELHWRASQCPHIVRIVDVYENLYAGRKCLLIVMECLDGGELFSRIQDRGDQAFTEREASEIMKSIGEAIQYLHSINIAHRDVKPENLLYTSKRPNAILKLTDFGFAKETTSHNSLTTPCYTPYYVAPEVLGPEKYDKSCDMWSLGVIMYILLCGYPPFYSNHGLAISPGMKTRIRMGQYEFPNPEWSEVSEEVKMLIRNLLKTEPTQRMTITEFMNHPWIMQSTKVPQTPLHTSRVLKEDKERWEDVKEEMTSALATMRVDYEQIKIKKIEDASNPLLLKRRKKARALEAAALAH
Protocol: as §1

[19] = target: CAMK1 (Homo sapiens, UniProt Q14012); details: 10 µM, inhibitor
CAMK1, sequence (Q14012 whole entry): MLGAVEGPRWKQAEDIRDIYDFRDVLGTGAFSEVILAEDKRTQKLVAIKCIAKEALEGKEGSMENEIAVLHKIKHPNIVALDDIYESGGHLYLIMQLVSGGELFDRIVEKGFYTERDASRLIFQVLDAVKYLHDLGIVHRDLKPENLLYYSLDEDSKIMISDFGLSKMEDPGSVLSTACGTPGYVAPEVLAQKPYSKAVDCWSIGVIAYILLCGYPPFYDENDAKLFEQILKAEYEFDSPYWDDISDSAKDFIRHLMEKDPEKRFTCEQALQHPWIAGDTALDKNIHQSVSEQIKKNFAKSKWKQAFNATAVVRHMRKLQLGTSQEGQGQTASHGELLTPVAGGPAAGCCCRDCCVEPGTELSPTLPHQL
Protocol: as §1

MAPK14, sequence (Q16539 whole entry): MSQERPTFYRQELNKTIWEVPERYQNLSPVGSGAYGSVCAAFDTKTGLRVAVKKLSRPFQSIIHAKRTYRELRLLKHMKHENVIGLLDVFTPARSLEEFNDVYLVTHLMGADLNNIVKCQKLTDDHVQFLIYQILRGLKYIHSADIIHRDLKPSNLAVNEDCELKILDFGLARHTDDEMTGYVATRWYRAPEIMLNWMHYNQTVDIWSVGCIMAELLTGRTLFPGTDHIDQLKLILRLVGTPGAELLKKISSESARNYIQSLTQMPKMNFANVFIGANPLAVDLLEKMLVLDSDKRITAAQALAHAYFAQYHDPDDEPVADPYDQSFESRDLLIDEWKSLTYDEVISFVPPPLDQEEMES
NTRK1, sequence (P04629 whole entry): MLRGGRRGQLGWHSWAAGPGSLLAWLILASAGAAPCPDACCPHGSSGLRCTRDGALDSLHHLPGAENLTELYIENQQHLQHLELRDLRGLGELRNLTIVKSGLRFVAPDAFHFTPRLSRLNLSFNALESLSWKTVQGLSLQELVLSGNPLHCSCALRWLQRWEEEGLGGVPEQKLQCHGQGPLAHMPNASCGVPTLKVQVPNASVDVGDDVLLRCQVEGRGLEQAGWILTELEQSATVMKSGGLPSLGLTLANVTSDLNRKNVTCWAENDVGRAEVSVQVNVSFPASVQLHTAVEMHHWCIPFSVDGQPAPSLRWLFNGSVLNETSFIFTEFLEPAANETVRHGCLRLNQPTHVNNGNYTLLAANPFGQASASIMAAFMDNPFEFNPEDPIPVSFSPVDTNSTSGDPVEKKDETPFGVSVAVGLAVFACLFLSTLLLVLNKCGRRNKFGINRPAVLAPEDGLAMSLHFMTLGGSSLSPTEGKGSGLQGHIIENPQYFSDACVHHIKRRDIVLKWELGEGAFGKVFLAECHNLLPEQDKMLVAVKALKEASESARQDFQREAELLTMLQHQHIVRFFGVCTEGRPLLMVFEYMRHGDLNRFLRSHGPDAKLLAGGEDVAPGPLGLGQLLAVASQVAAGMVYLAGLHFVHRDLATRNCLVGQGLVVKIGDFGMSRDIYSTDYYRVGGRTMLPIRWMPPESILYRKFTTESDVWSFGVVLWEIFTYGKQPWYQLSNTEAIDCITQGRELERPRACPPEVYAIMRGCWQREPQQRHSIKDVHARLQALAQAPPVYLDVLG

O=C(O)c1sc2cc(F)sc2c1Cl [PF-07208254, 3-chloro-5-fluorothieno[3,2-b]thiophene-2-carboxylic acid]
ATP = 1 mM % Inhibition PF-07208254 [1]: 5.8% | ATP = Km % Inhibition PF-07208254 [1]: 5.6% | ATP = 1 mM % Inhibition PF-07208254 [2]: 4.0% | ATP = Km % Inhibition PF-07208254 [2]: 3.0% | ATP = 10 uM % Inhibition PF-07208254 [3]: 8.2% | ATP = 1 mM % Inhibition PF-07208254 [4]: -4.8% | ATP = Km % Inhibition PF-07208254 [4]: 5.6% | ATP = 10 uM % Inhibition PF-07208254 [5]: 3.5% | ATP = Km % Inhibition PF-07208254 [6]: -11.4% | ATP = 1 mM % Inhibition PF-07208254 [7]: -1.2% | ATP = Km % Inhibition PF-07208254 [7]: 14.6% | ATP = Km % Inhibition PF-07208254 [8]: 3.2% | ATP = 1 mM % Inhibition PF-07208254 [9]: -0.1% | ATP = Km % Inhibition PF-07208254 [9]: -3.6% | ATP = Km % Inhibition PF-07208254 [10]: 5.1% | ATP = 1 mM % Inhibition PF-07208254 [11]: -10.2% | ATP = Km % Inhibition PF-07208254 [11]: -3.1% | ATP = Km % Inhibition PF-07208254 [12]: 7.9% | ATP = Km % Inhibition PF-07208254 [13]: 7.3% | ATP = Km % Inhibition PF-07208254 [14]: 6.4% | ATP = Km % Inhibition PF-07208254 [15]: 0.2% | ATP = Km % Inhibition PF-07208254 [16]: 44.5% | ATP = Km % Inhibition PF-07208254 [17]: 4.8% | ATP = 1 mM % Inhibition PF-07208254 [18]: -1.5% | ATP = Km % Inhibition PF-07208254 [18]: 3.4% | ATP = 100 uM % Inhibition PF-07208254 [19]: -7.9%

CCC1(COc2ccc(-c3csc(-c4ccccc4C(=O)O)n3)cn2)CC1 [PF-07247685, 2-(4-{6-[(1-ethylcyclopropyl)methoxy]pyridin-3-yl}-1,3-thiazol-2-yl)benzoic acid]
ATP = 1 mM % Inhibition PF-07247685 [1]: 10.0% | ATP = Km % Inhibition PF-07247685 [1]: 14.5% | ATP = 1 mM % Inhibition PF-07247685 [2]: 7.1% | ATP = Km % Inhibition PF-07247685 [2]: 3.5% | ATP = 10 uM % Inhibition PF-07247685 [3]: -3.1% | ATP = 1 mM % Inhibition PF-07247685 [4]: -1.0% | ATP = Km % Inhibition PF-07247685 [4]: 17.3% | ATP = 10 uM % Inhibition PF-07247685 [5]: 2.0% | ATP = Km % Inhibition PF-07247685 [6]: 7.2% | ATP = 1 mM % Inhibition PF-07247685 [7]: -1.4% | ATP = Km % Inhibition PF-07247685 [7]: 1.2% | ATP = Km % Inhibition PF-07247685 [8]: 6.3% | ATP = 1 mM % Inhibition PF-07247685 [9]: 1.7% | ATP = Km % Inhibition PF-07247685 [9]: 1.4% | ATP = Km % Inhibition PF-07247685 [10]: 0.4% | ATP = 1 mM % Inhibition PF-07247685 [11]: -2.2% | ATP = Km % Inhibition PF-07247685 [11]: -0.3% | ATP = Km % Inhibition PF-07247685 [12]: 7.1% | ATP = Km % Inhibition PF-07247685 [13]: 3.0% | ATP = Km % Inhibition PF-07247685 [14]: -7.0% | ATP = Km % Inhibition PF-07247685 [15]: 5.5% | ATP = Km % Inhibition PF-07247685 [16]: -2.6% | ATP = Km % Inhibition PF-07247685 [17]: -4.6% | ATP = 1 mM % Inhibition PF-07247685 [18]: 3.3% | ATP = Km % Inhibition PF-07247685 [18]: 2.2% | ATP = 100 uM % Inhibition PF-07247685 [19]: -5.1%

— paper PMC10412597, “Small molecule branched-chain ketoacid dehydrogenase kinase (BDK) inhibitors with opposing effects on BDK protein levels” (Nature Communications, 2023)
